Key:
[1] = tested on: BDNF mRNA expression in the hippocampus; assay: Brain-derived neurotrophic factor (BDNF) mRNA expression measurement test; type: in vivo; conditions: high-fat diet mice, YLG 10 mg/kg/day oral, day 7, RT-PCR, standardized with β-actin mRNA; FIG. 6
Method: (§1) Four-week-old male dd Y mice were divided into 3 groups (8 mice per group). The mice were reared for 1 week such that Group 1 was fed a normal diet (3.85 kcal/g: 20 kcal % of protein, 70 kcal % of carbohydrate, and 10 kcal % of lipid), and Group 2 and Group 3 were fed a 60% high-fat diet (5.24 kcal/g: 20 kcal % of protein, 20 kcal % of carbohydrate, and 60 kcal % of lipid). During the period, the YLG tripeptide was orally administered to Group 3 daily in an amount of 10 mg/kg/day.
(§2) On day 6 and day 7 after the initiation of feeding, two behavioral tests (episodic memory evaluation test: object recognition test (ORT), and a spatial memory evaluation test: object location test (OLT)), which are known as cognitive function evaluation systems, were performed, as well as a hippocampal neurogenesis evaluation test using deoxyuridine bromide (BrdU). On day 7, the brain hippocampus was removed, and a BDNF mRNA expression level in the hippocampus was measured.
On day 7 after the initiation of feeding, the mice in each group (n=8) were dissected under anesthesia, and the hippocampus was removed from the brain. The removed hippocampus was stored in RNA later for RNA extraction. […] Then, the brain-derived neurotrophic factor (BDNF) mRNA expression level in the hippocampus was measured by RT-PCR according to a standard method. […]

[2] = tested on: male dd Y mice fed a 60% high-fat diet; assay: Glucose tolerance test; type: in vivo; conditions: YLG 10 mg/kg/day oral; for blood glucose level in the glucose tolerance test (relative value, level immediately before glucose = 100): day 7
Method: Twelve-week-old male dd Y mice were divided into 3 groups (n=8). The mice were reared for 1 week such that Group 1 was fed a normal diet (3.85 kcal/g: 20 kcal % of protein, 70 kcal % of carbohydrate, and 10 kcal % of lipid), and Group 2 and Group 3 were fed a 60% high-fat diet (5.24 kcal/g: 20 kcal % of protein, 20 kcal % of carbohydrate, and 60 kcal % of lipid). During the period, the YLG peptide was orally administered to Group 3 daily in an amount of 10 mg/kg/day.
On day 7 after the initiation of feeding, glucose (2 g/kg/p.o.) was administered after fasting for 5 hours. The administration of the YLG peptide on day 7 was performed 2 hours before the glucose administration. Blood was collected from the tail vein immediately before the glucose administration, and 15 minutes, 30 minutes, and 60 minutes after the administration to measure the blood glucose level using a glucose sensor (Nipro Corporation).
(§3) Tables 1 and 2 show changes in blood glucose level in the glucose tolerance test and changes in blood glucose level in the insulin tolerance test, respectively. The numerical values shown in each table are relative values, taking the blood glucose level immediately before the administration of glucose or insulin as 100.

[3] = tested on: male dd Y mice fed a 60% high-fat diet; assay: Insulin tolerance test; type: in vivo; conditions: YLG 10 mg/kg/day oral; for blood glucose level in the insulin tolerance test (relative value, level immediately before insulin = 100): day 7
Method: As in the glucose tolerance test, twelve-week-old male dd Y mice were divided into 3 groups (n=6-7), and the mice were reared for 1 week such that Group 1 was fed a normal diet, and Group 2 and Group 3 were fed a 60% high-fat diet. During the period, the YLG peptide was orally administered to Group 3 daily in an amount of 10 mg/kg/day. On day 7 after the initiation of feeding, insulin (0.5 U/kg/i.p.) was administered after fasting for 5 hours. The administration of the YLG peptide on day 7 was performed 2 hours before the insulin administration. Blood was collected from the tail vein immediately before insulin administration, and 15 minutes, 30 minutes, and 60 minutes after the administration to measure the blood glucose level using a glucose sensor (Nipro Corporation).
as §3

[4] = tested on: male dd Y mice fed a 60% high-fat diet; assay: Spatial memory evaluation test: object location test (OLT); type: in vivo; conditions: YLG 10 mg/kg/day oral for 1 week, test on day 7, FIG. 4
Method: as §1, §2
The OLT is a behavioral test that evaluates spatial memory, which is part of cognitive functions. […] The difference lies in that the location of only one object is changed in Trial 2. […] The cognitive function of the mice was evaluated using the ratio of the approach time for the object placed at the novel location to the total approach time for both objects as an index. […]

[5] = tested on: BrdU-positive cells in the hippocampal dentate gyrus; assay: Hippocampal neurogenesis evaluation test using deoxyuridine bromide (BrdU); type: in vivo; conditions: high-fat diet mice, YLG 10 mg/kg/day oral, day 7; FIG. 5
Method: as §1, §2
On day 6 after the initiation of feeding, 100 mg/kg of deoxyuridine bromide (BrdU) was intraperitoneally administered to the mice of each group (n=4), and after 24 hours (day 7), perfusion fixation was performed using 4% paraformaldehyde. Next, the whole brain was extracted and frozen to prepare frozen sections on a cryostat. […]

[6] = reported in NPL 4; cited from earlier work
[7] = tested on: male dd Y mice fed a 60% high-fat diet; assay: Episodic memory evaluation test: object recognition test (ORT); type: in vivo; conditions: YLG 10 mg/kg/day oral for 1 week, test on day 7, FIG. 2
Method: as §1, §2
The ORT is a behavioral test that evaluates episodic memory, which is part of cognitive functions. […] First, the mouse was placed in a square open field for 5 minutes for habituation. […] In Trial 2, the approach time of the mouse for each object was measured. […] The cognitive function of the mice was evaluated using the ratio of the approach time for the novel object to the total approach time for both objects as an index. […]

For Tyr-Leu-Gly [YLG peptide], the “BDNF mRNA expression level in the hippocampus” value [1] was “recovered to a level equal to or even greater than that of the normal diet group”, the “blood glucose level in the glucose tolerance test (relative value, level immediately before glucose = 100)” value ([2]; 15 min after glucose 2 g/kg p.o.) was 190 ± 14 and the “blood glucose level in the glucose tolerance test (relative value, level immediately before glucose = 100)” value ([2]; 30 min after glucose 2 g/kg p.o.) was 169 ± 10. For the same substance, the “blood glucose level in the glucose tolerance test (relative value, level immediately before glucose = 100)” value ([2]; 60 min after glucose 2 g/kg p.o.) was 113 ± 5, the “effect on the increase in blood glucose level caused by high-fat diet intake (glucose tolerance test, in words)” value [2] was “prevented the increase in blood glucose level” and the “blood glucose level in the insulin tolerance test (relative value, level immediately before insulin = 100)” value ([3]; 15 min after insulin 0.5 U/kg i.p.) was 90 ± 2. The “blood glucose level in the insulin tolerance test (relative value, level immediately before insulin = 100)” value ([3]; 30 min after insulin 0.5 U/kg i.p.) was 78 ± 3, the “blood glucose level in the insulin tolerance test (relative value, level immediately before insulin = 100)” value ([3]; 60 min after insulin 0.5 U/kg i.p.) was 70 ± 4 and the “effect on insulin resistance induced by the high-fat diet (glucose and insulin tolerance tests, in words)” value [3] was “improved insulin resistance induced by the high-fat diet”. The “ratio of the approach time for the object placed at the novel location to the total approach time for both objects (OLT, spatial memory)” value [4] was “recovered to a level equal to that of the normal diet group”, the “number of BrdU-positive cells in the hippocampal dentate gyrus (hippocampal neurogenesis)” value [5] was “recovered to a level equal to that of the normal diet group” and the anxiolytic effect [6] was “anxiolytic effect”. The “ratio of the approach time for the novel object to the total approach time for both objects (ORT, episodic memory)” value [7] was “recovered to a level equal to that of the normal diet group”.

— patent US11464824B2, “Peptide capable of improving cognitive function” (THE FOOD SCIENCE INSTITUTE FOUNDATION, priority 2018, dated 2022)
